#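 Cells were grown in 96-well plates and exposed to each compound for 48 hours at five concentrations; endpoints were interpolated linearly between bracketing concentrations, or set to the highest concentration if not reached. At the GI50, growth is halved. TGI marks complete inhibition of growth.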
# Columns and labels:
# Experiment in all cases: DTP human tumour cell line panel, 48 h
# ACHN renal = test system: ACHN renal
# MCF7 breast = test system: MCF7 breast
# NCI-H226 lung = test system: NCI-H226 lung
# HOP-62 NSCLC = test system: HOP-62 NSCLC
# A549 NSCLC = test system: A549 NSCLC
# SK-MEL-5 melanoma = test system: SK-MEL-5 melanoma
# SK-MEL-2 melanoma = test system: SK-MEL-2 melanoma
# U251 CNS = test system: U251 CNS
# HCT-15 colon = test system: HCT-15 colon
# SN12C renal = test system: SN12C renal
# PC-3 prostate = test system: PC-3 prostate
# LOX IMVI melanoma = test system: LOX IMVI melanoma
# UACC-257 melanoma = test system: UACC-257 melanoma
# OVCAR-3 ovarian = test system: OVCAR-3 ovarian
# SW-620 colon = test system: SW-620 colon
# SF-539 CNS = test system: SF-539 CNS
# RPMI-8226 leukemia = test system: RPMI-8226 leukemia
# 786-0 renal = test system: 786-0 renal
# HOP-92 NSCLC = test system: HOP-92 NSCLC
# NCI-H23 lung = test system: NCI-H23 lung
# EKVX NSCLC = test system: EKVX NSCLC
# UO-31 renal = test system: UO-31 renal
# NCI/ADR-RES ovarian = test system: NCI/ADR-RES ovarian
# M14 melanoma = test system: M14 melanoma
# SF-268 CNS = test system: SF-268 CNS
# OVCAR-8 ovarian = test system: OVCAR-8 ovarian
# SK-MEL-28 melanoma = test system: SK-MEL-28 melanoma
# HL-60(TB) leukemia = test system: HL-60(TB) leukemia
# MOLT-4 leukemia = test system: MOLT-4 leukemia
# HS 578T breast = test system: HS 578T breast
# IGROV1 ovarian = test system: IGROV1 ovarian
# CAKI-1 renal = test system: CAKI-1 renal
# MDA-MB-435 = test system: MDA-MB-435
# NCI-H460 lung = test system: NCI-H460 lung
# HCT-116 colon = test system: HCT-116 colon
# SF-295 CNS = test system: SF-295 CNS
# DU-145 prostate = test system: DU-145 prostate
# NCI-H522 lung = test system: NCI-H522 lung
# CCRF-CEM leukemia = test system: CCRF-CEM leukemia
# TK-10 renal = test system: TK-10 renal
# HT29 colon = test system: HT29 colon
# COLO 205 colon = test system: COLO 205 colon
# SNB-19 CNS = test system: SNB-19 CNS
# MDA-MB-231 breast = test system: MDA-MB-231 breast
# T-47D breast = test system: T-47D breast
# OVCAR-5 ovarian = test system: OVCAR-5 ovarian
# RXF 393 renal = test system: RXF 393 renal
# K-562 leukemia = test system: K-562 leukemia
# KM12 colon = test system: KM12 colon
# HCC-2998 colon = test system: HCC-2998 colon
# UACC-62 melanoma = test system: UACC-62 melanoma
compound,measurement,setting,value
CCN(CC)CCOc1ccc(/C=C2\C[C@H]3[C@@H]4CC=C5C[C@@H](OC(C)=O)CC[C@]5(C)[C@H]4CC[C@]3(C)[C@H]2OC(C)=O)cc1OC,GI50,ACHN renal,9.19 µM
same,TGI,ACHN renal,19.2 µM
same,GI50,MCF7 breast,12.8 µM
same,TGI,MCF7 breast,> 50 µM
same,GI50,NCI-H226 lung,11.3 µM
same,TGI,NCI-H226 lung,31.7 µM
same,GI50,HOP-62 NSCLC,10.1 µM
same,TGI,HOP-62 NSCLC,19.5 µM
same,GI50,A549 NSCLC,9.86 µM
same,TGI,A549 NSCLC,19.6 µM
same,GI50,SK-MEL-5 melanoma,5.39 µM
same,TGI,SK-MEL-5 melanoma,17 µM
same,GI50,SK-MEL-2 melanoma,19.2 µM
same,TGI,SK-MEL-2 melanoma,> 50 µM
same,GI50,U251 CNS,10.3 µM
same,TGI,U251 CNS,26.2 µM
same,GI50,HCT-15 colon,7.38 µM
same,TGI,HCT-15 colon,> 50 µM
same,GI50,SN12C renal,9.06 µM
same,TGI,SN12C renal,21.3 µM
same,GI50,PC-3 prostate,7.68 µM
same,TGI,PC-3 prostate,21.3 µM
same,GI50,LOX IMVI melanoma,18.1 µM
same,TGI,LOX IMVI melanoma,> 50 µM
same,GI50,UACC-257 melanoma,10.6 µM
same,TGI,UACC-257 melanoma,20 µM
same,GI50,OVCAR-3 ovarian,10.3 µM
same,TGI,OVCAR-3 ovarian,22.1 µM
same,GI50,SW-620 colon,16.8 µM
same,TGI,SW-620 colon,> 50 µM
same,GI50,SF-539 CNS,8.59 µM
same,TGI,SF-539 CNS,16 µM
same,GI50,RPMI-8226 leukemia,1.4 µM
same,TGI,RPMI-8226 leukemia,24.2 µM
same,GI50,786-0 renal,9.66 µM
same,TGI,786-0 renal,18.7 µM
same,GI50,HOP-92 NSCLC,5.95 µM
same,TGI,HOP-92 NSCLC,14.7 µM
same,GI50,NCI-H23 lung,7.96 µM
same,TGI,NCI-H23 lung,16.1 µM
same,GI50,EKVX NSCLC,6.84 µM
same,TGI,EKVX NSCLC,14.5 µM
same,GI50,UO-31 renal,11.6 µM
same,TGI,UO-31 renal,27 µM
same,GI50,NCI/ADR-RES ovarian,11.1 µM
same,TGI,NCI/ADR-RES ovarian,22.3 µM
same,GI50,M14 melanoma,7.62 µM
same,TGI,M14 melanoma,17.2 µM
same,GI50,SF-268 CNS,8.34 µM
same,TGI,SF-268 CNS,19.8 µM
same,GI50,OVCAR-8 ovarian,11.4 µM
same,TGI,OVCAR-8 ovarian,22.7 µM
same,GI50,SK-MEL-28 melanoma,12.4 µM
same,TGI,SK-MEL-28 melanoma,> 50 µM
same,GI50,HL-60(TB) leukemia,9.57 µM
same,TGI,HL-60(TB) leukemia,19.5 µM
same,GI50,MOLT-4 leukemia,1.4 µM
same,TGI,MOLT-4 leukemia,20.6 µM
same,GI50,HS 578T breast,10.6 µM
same,TGI,HS 578T breast,22.4 µM
same,GI50,IGROV1 ovarian,14.9 µM
same,TGI,IGROV1 ovarian,> 50 µM
same,GI50,CAKI-1 renal,9.21 µM
same,TGI,CAKI-1 renal,18.6 µM
same,GI50,MDA-MB-435,11 µM
same,TGI,MDA-MB-435,21.7 µM
same,GI50,NCI-H460 lung,7.6 µM
same,TGI,NCI-H460 lung,34.6 µM
same,GI50,HCT-116 colon,9.76 µM
same,TGI,HCT-116 colon,18.6 µM
same,GI50,SF-295 CNS,12.2 µM
same,TGI,SF-295 CNS,24.3 µM
same,GI50,DU-145 prostate,5.84 µM
same,TGI,DU-145 prostate,12.2 µM
same,GI50,NCI-H522 lung,17.4 µM
same,TGI,NCI-H522 lung,> 50 µM
same,GI50,CCRF-CEM leukemia,0.361 µM
same,TGI,CCRF-CEM leukemia,6.77 µM
same,GI50,TK-10 renal,9.67 µM
same,TGI,TK-10 renal,20.5 µM
same,GI50,HT29 colon,14.8 µM
same,TGI,HT29 colon,> 50 µM
same,GI50,COLO 205 colon,19.6 µM
same,TGI,COLO 205 colon,> 50 µM
same,GI50,SNB-19 CNS,11.8 µM
same,TGI,SNB-19 CNS,30.1 µM
same,GI50,MDA-MB-231 breast,14.1 µM
same,TGI,MDA-MB-231 breast,31.8 µM
same,GI50,T-47D breast,16.3 µM
same,TGI,T-47D breast,48.1 µM
same,GI50,OVCAR-5 ovarian,9.3 µM
same,TGI,OVCAR-5 ovarian,18 µM
same,GI50,RXF 393 renal,8.96 µM
same,TGI,RXF 393 renal,20.7 µM
same,GI50,K-562 leukemia,8.17 µM
same,TGI,K-562 leukemia,28.4 µM
same,GI50,KM12 colon,9.65 µM
same,TGI,KM12 colon,21.4 µM
same,GI50,HCC-2998 colon,5.34 µM
same,TGI,HCC-2998 colon,12.5 µM
same,GI50,UACC-62 melanoma,11 µM
same,TGI,UACC-62 melanoma,24.8 µM
[O-]c1c2cc(-[n+]3c(-c4ccccc4)cc(-c4ccccc4)cc3-c3ccccc3)cc1CO[C@@H](c1ccccc1)[C@H](c1ccccc1)OCc1cccc(n1)CO[C@@H](c1ccccc1)[C@H](c1ccccc1)OC2,TGI,UACC-62 melanoma,1.68 µM

# Reference: PubChem BioAssay (NCI)
